Where “and” joins values, the source holds several entries; their conditions need not be identical. Equal values may be shown once. Toxic doses and inconclusive results are not listed. Rule for the calls: active = survival T/C of 150% or more; inactive = T/C below 125% in these data.
Test system: P388 leukemia ip, CD2F1 mice, survival T/C
Assay: NCI In Vivo Anticancer Drug Screen. Data for tumor model P388 Leukemia (intraperitoneal) in CD2F1 (CDF1) mice
Details: endpoint: median survival time, higher = longer survival
Procedure, shortened: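 Mice carrying the transplanted tumor received test compound or vehicle. Survival was recorded in each group, and the value is the treated-group measurement divided by that of the vehicle-treated control group.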

[1] = dose: 100.0 mg/kg/injection, schedule: Q01DX001 (ip), vehicle: saline with Tween-80
[2] = dose: 200.0 mg/kg/injection, schedule: Q01DX001 (ip), vehicle: saline with Tween-80
[3] = dose: 50.0 mg/kg/injection, schedule: Q01DX009 (ip), vehicle: Klucel (hydroxypropylcellulose) (HPC)
[4] = dose: 100.0 mg/kg/injection, schedule: Q01DX009 (ip), vehicle: Klucel (hydroxypropylcellulose) (HPC)
[5] = dose: 200.0 mg/kg/injection, schedule: Q01DX009 (ip), vehicle: Klucel (hydroxypropylcellulose) (HPC)
[6] = dose: 100.0 mg/kg/injection, schedule: Q01DX009 (ip), vehicle: saline
[7] = dose: 100.0 mg/kg/injection, schedule: Q04DX003 (ip), vehicle: saline
[8] = dose: 200.0 mg/kg/injection, schedule: Q04DX003 (ip), vehicle: saline
[9] = dose: 50.0 mg/kg/injection, schedule: Q01DX005 (ip), vehicle: saline with Tween-80
[10] = dose: 100.0 mg/kg/injection, schedule: Q01DX005 (ip), vehicle: saline with Tween-80
[11] = dose: 200.0 mg/kg/injection, schedule: Q01DX005 (ip), vehicle: saline with Tween-80
[12] = dose: 100.0 mg/kg/injection, schedule: Q01DX009 (ip), vehicle: saline with Tween-80
[13] = dose: 200.0 mg/kg/injection, schedule: Q01DX009 (ip), vehicle: saline with Tween-80
[14] = dose: 7.5 mg/kg/injection, schedule: Q01DX005 (ip), vehicle: saline
[15] = dose: 30.0 mg/kg/injection, schedule: Q01DX005 (ip), vehicle: saline
[16] = dose: 50.0 mg/kg/injection, schedule: Q01DX005 (ip), vehicle: Klucel (hydroxypropylcellulose) (HPC)
[17] = dose: 100.0 mg/kg/injection, schedule: Q01DX005 (ip), vehicle: Klucel (hydroxypropylcellulose) (HPC)
[18] = dose: 200.0 mg/kg/injection, schedule: Q01DX005 (ip), vehicle: Klucel (hydroxypropylcellulose) (HPC)
[19] = dose: 50.0 mg/kg/injection, schedule: Q01DX009 (ip), vehicle: saline
[20] = dose: 25.0 mg/kg/injection, schedule: Q01DX009 (ip), vehicle: Klucel (hydroxypropylcellulose) (HPC)
[21] = dose: 15.0 mg/kg/injection, schedule: Q01DX005 (ip), vehicle: saline

Measured: T/C

O=C(c1ccccc1C(=O)N1CCCO1)N1CCCO1
inactive: dose: 60.0 mg/kg/injection, schedule: Q01DX005 (ip), vehicle: Klucel (hydroxypropylcellulose) (HPC) 93 % of control | dose: 120.0 mg/kg/injection, schedule: Q01DX005 (ip), vehicle: Klucel (hydroxypropylcellulose) (HPC) 100 % of control | dose: 240.0 mg/kg/injection, schedule: Q01DX005 (ip), vehicle: Klucel (hydroxypropylcellulose) (HPC) 100 % of control

CCCCCCCC(=O)Nc1cc(C)ccc1C
inactive: dose: 100.0 mg/kg/injection, schedule: Q04DX003 (ip), vehicle: saline with Tween-80 100 % of control | dose: 200.0 mg/kg/injection, schedule: Q04DX003 (ip), vehicle: saline with Tween-80 86 % of control | dose: 400.0 mg/kg/injection, schedule: Q04DX003 (ip), vehicle: saline with Tween-80 90 % of control

CCSc1cccc2nncn12
inactive: dose: 50.0 mg/kg/injection, schedule: Q01DX001 (ip), vehicle: saline 103 % of control | dose: 100.0 mg/kg/injection, schedule: Q01DX001 (ip), vehicle: saline 100 % of control | dose: 200.0 mg/kg/injection, schedule: Q01DX001 (ip), vehicle: saline 100 % of control

COc1ccc2nc(-n3[nH]c(C)c(-c4cc(C)nn4-c4ccccc4)c3=O)cc(C)c2c1
inactive: [1] 98 % of control | [2] 91 % of control

COC1C(Br)C(C)(OC)c2ccccc2N1C#N (stereo unspecified)
inactive: [3] 101 % of control | [4] 100 % of control | [5] 100 % of control

CCCCCCCCCCSCC
inactive: [6] 95 % of control | [7] 100 % of control | dose: 200.0 mg/kg/injection, schedule: Q01DX009 (ip), vehicle: saline 100 % of control | [8] 91 % of control | dose: 400.0 mg/kg/injection, schedule: Q01DX009 (ip), vehicle: saline 104 % of control | dose: 400.0 mg/kg/injection, schedule: Q04DX003 (ip), vehicle: saline 100 % of control

CCCCCCCCCCC(=O)N(C(C)CC(C)C)C1CC(C)CC(C)(C)C1 (stereo unspecified)
inactive: [9] 104 % of control | [10] 100 % of control | [11] 101 % of control

COc1ccccc1-n1c(=S)n(-c2ccccc2C)c2nc3ccccc3nc1/c2=N\Nc1ccccn1
inactive: [9] 100 % of control | [10] 102 % of control

NC(=O)c1ccc(-c2csc(=S)[nH]2)s1
inactive: dose: 50.0 mg/kg/injection, schedule: Q01DX009 (ip), vehicle: saline with Tween-80 100 % of control and 105 % of control | [12] 101 % of control and 108 % of control | [13] 96 % of control

COC(=O)C(C)N(CCCl)P(=O)(N1CC1)N1CC1 (stereo unspecified)
active: [15] 182 % of control
inactive: [14] 119 % of control

O=C1CC[C@@H]2N1CC2(O)c1ccccc1 (mixture of isomers)
inactive: [16] 96 % of control | [17] 93 % of control | [18] 93 % of control

O=C(Cc1cccc2c(=O)cc(-c3ccccc3)oc12)OCCN1CCOCC1
inactive: [19] 99 % of control | [6] 100 % of control

[Cl][Eu][Cl]
inactive: [19] 87 % of control | [6] 91 % of control

O=C(O)CC(=O)NC1c2ccccc2Oc2ccccc21
inactive: [16] 94 % of control | [17] 97 % of control | [18] 99 % of control

O=c1[nH]cnc2cc3c(cc12)nc1n3CCOC1
inactive: [7] 109 % of control | [8] 105 % of control

BrCC1CN=C(c2ccccc2)O1 (stereo unspecified)
inactive: dose: 60.0 mg/kg/injection, schedule: Q01DX005 (ip), vehicle: saline 104 % of control | dose: 120.0 mg/kg/injection, schedule: Q01DX005 (ip), vehicle: saline 101 % of control | dose: 240.0 mg/kg/injection, schedule: Q01DX005 (ip), vehicle: saline 101 % of control

CC1OC(OCC2OC(OCCc3ccc(O)c(O)c3)C(O)C(OC3OC(C)C(O)C(O)C3O)C2O)C(O)C(O)C1O (stereo unspecified) (tested in a mixture with another compound)
inactive: dose: 9.5 mg/kg/injection, schedule: Q01DX009 (ip), vehicle: saline 105 % of control | dose: 19.0 mg/kg/injection, schedule: Q01DX009 (ip), vehicle: saline 103 % of control | dose: 38.0 mg/kg/injection, schedule: Q01DX009 (ip), vehicle: saline 112 % of control | dose: 76.0 mg/kg/injection, schedule: Q01DX009 (ip), vehicle: saline 103 % of control

COP(=O)(OC)/C(C)=N/NS(=O)(=O)c1ccc(C)cc1
inactive: dose: 12.5 mg/kg/injection, schedule: Q01DX009 (ip), vehicle: other 91 % of control | dose: 25.0 mg/kg/injection, schedule: Q01DX009 (ip), vehicle: other 91 % of control | dose: 50.0 mg/kg/injection, schedule: Q01DX009 (ip), vehicle: other 99 % of control | dose: 100.0 mg/kg/injection, schedule: Q01DX009 (ip), vehicle: other 100 % of control | dose: 200.0 mg/kg/injection, schedule: Q01DX009 (ip), vehicle: other 98 % of control | dose: 400.0 mg/kg/injection, schedule: Q01DX009 (ip), vehicle: other 94 % of control

CC(=O)O/C1=C\CCCCCCCCCC1
inactive: [9] 95 % of control | [10] 90 % of control | [11] 110 % of control

CCOC(=O)CC1CC2c3cc(OC)c(OC)cc3CCN2CC1CC (stereo unspecified)
inactive: dose: 12.5 mg/kg/injection, schedule: Q01DX009 (ip), vehicle: Klucel (hydroxypropylcellulose) (HPC) 108 % of control | [20] 114 % of control | [3] 100 % of control and 114 % of control

COc1ccc(-c2nnc(N)o2)cc1OC
inactive: dose: 60.0 mg/kg/injection, schedule: Q01DX005 (ip), vehicle: saline with Tween-80 107 % of control | dose: 120.0 mg/kg/injection, schedule: Q01DX005 (ip), vehicle: saline with Tween-80 98 % of control | dose: 240.0 mg/kg/injection, schedule: Q01DX005 (ip), vehicle: saline with Tween-80 103 % of control

O/N=c1/ccn(O)c2ccccc12
active: dose: 0.78 mg/kg/injection, schedule: Q01DX009 (ip), vehicle: saline 161 % of control | dose: 1.56 mg/kg/injection, schedule: Q01DX009 (ip), vehicle: saline 171 % of control | dose: 3.12 mg/kg/injection, schedule: Q01DX009 (ip), vehicle: saline 204 % of control

Cc1c(O)c2ccccc2c2c1sc(NCCCN(CCO)CCO)[n+]2C
inactive: [14] 109 % of control | [21] 107 % of control | [15] 110 % of control

CN1CC=C(c2ccccc2)CC1
inactive: dose: 6.25 mg/kg/injection, schedule: Q01DX005 (ip), vehicle: saline 97 % of control | dose: 12.5 mg/kg/injection, schedule: Q01DX005 (ip), vehicle: saline 99 % of control | dose: 25.0 mg/kg/injection, schedule: Q01DX005 (ip), vehicle: saline 101 % of control and 98 % of control

CCCCNC(=S)S
inactive: [12] 109 % of control | [13] 109 % of control | dose: 400.0 mg/kg/injection, schedule: Q01DX009 (ip), vehicle: saline with Tween-80 104 % of control

C/C(N)=C/C(=O)Nc1ccccc1
inactive: [20] 109 % of control | [3] 109 % of control | [4] 97 % of control | [5] 108 % of control

CC(C)N1C(=O)C2C3C=CC(C2C1=O)C1C2C(=O)N(C(C)C)C(=O)C2C31 (stereo unspecified)
inactive: [1] 99 % of control | [2] 96 % of control | dose: 400.0 mg/kg/injection, schedule: Q01DX001 (ip), vehicle: saline with Tween-80 89 % of control

O=[N+]([O-])O.[Al]
inactive: dose: 25.0 mg/kg/injection, schedule: Q01DX009 (ip), vehicle: saline 100 % of control | [19] 91 % of control | [6] 86 % of control | [7] 90 % of control

C[C@]12Cc3cnc(N)nc3C[C@@H]1CC[C@@H]1[C@@H]2CC[C@@]2(C)[C@H]1CC[C@]2(C)O
inactive: [9] 99 % of control | [10] 89 % of control | [11] 89 % of control

NC(=O)c1ccccc1N1CCCCC1
inactive: [9] 99 % of control | [10] 100 % of control | [11] 91 % of control

C[N+]12CCC34C5=CC(=O)C(=O)C=C5[N+]5(C)C(=O)CC6OCC=C(C1)C(CC32)C6C45 (stereo unspecified)
inactive: [14] 102 % of control | [21] 104 % of control | [15] 97 % of control
